Laboratory results as given in US20110178015A1, “METHODS OF TREATMENT USING BIASED LIGANDS FOR RECEPTORS SUCH AS THE PTH RECEPTOR” (priority 2007, published 2011).
“Also recorded” adds a separate entry of the source.

What was measured:
[1] = system: WT and β-arrestin 2−/− mice; test: Quantitative histomorphometry of lumbar spine sections; assay type: in vivo; details: for osteoblast surface vs vehicle / osteoclast surface (osteoclast recruitment) / osteoid surface vs vehicle: WT mice, 8 wks, lumbar spine sections
Excerpt: Dynamic histomorphometric data were consistent with the qCT of trabecular bone morphology. […] As expected there was an increase in osteoclast surface in the PTH (1-34) treated animals.

ERK1/2 = ERK1/2 MAP kinase activation (phosphorylation) in primary osteoblasts; assay type: cell-based, mice; details: 5 min, 100 nM PTH(1-34) or 1 μM PTH-βarr; for ERK1/2 activation: β-arrestin 2−/− POB; for ERK1/2 phosphorylation: WT POB
Experimental: FIG. 2 PTH-βarr stimulates β-arrestin mediated ERK1/2 activation. PTH-βarr stimulated ERK1/2 activation, was assessed in POBs isolated from β-arrestin 2−/− and WT C57BL/6 mice. POBs were treated with 100 nM PTH(1-34) (PTH) or 1 μM PTH-βarr for 5 min. […] The effect of PTH-barr stimulation on ERK1/2 activation in the WT obs was absent in the β-arrestin 2−/− obs. Values presented are the fold ERK1/2 phosphorylation over non-stimulated controls. Data represent the mean±SEM from four independent experiments. (**, P<0.01 compared with the non-stimulated WT POBs; ††, P<0.01 compared with the non-stimulated β-arrestin 2−/− POBs).
PTH(1-34) and PTH-βarr stimulated ERK1/2 MAP kinase activation was assessed in WT and β-arrestin 2−/− POB after treatment for 5 min with 100 nM PTH(1-34) or 1 μM PTH-βarr (FIG. 1b).

endogenous PTH1R = molecular target: T1, endogenous PTH1R (Mus musculus, UniProt P41593); test: Gq/11 PI hydrolysis in POB cultures; assay type: cell-based, mice; details: data not shown
T1 construct: stimulation of endogenous PTH1R in primary murine osteoblasts (POB); endogenous in cells; host or cells: primary osteoblasts (POB) from WT and β-arrestin 2−/− C57BL/6 mice
T1 sequence (P41593 27-591): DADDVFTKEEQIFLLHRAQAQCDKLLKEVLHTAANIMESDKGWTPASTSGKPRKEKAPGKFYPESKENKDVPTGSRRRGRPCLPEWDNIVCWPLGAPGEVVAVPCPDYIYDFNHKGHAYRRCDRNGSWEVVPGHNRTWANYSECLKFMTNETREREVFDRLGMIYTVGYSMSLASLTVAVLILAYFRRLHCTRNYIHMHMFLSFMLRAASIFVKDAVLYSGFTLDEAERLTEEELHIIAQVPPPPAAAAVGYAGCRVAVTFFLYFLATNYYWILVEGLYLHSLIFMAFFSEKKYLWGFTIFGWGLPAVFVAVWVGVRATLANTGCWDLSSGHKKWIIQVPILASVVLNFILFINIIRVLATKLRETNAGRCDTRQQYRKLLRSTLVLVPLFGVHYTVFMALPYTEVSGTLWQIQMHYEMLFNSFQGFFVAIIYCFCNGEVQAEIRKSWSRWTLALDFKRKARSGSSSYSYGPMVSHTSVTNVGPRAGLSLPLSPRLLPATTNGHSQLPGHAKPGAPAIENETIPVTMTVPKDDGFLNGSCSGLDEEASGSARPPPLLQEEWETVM

[2] = system: osteocalcin, RANKL and OPG gene expression; test: Calvarial gene expression of bone regulatory proteins by quantitative RT-PCR; assay type: in vivo, mice
Experimental: FIG. 6 Distinct β-arrestin- and G protein-dependent Pathways Contribute to PTH Receptor-stimulated Gene Expression of Bone Regulatory Proteins. To determine the contributions of β-arrestin mediated signaling, to PTH receptor stimulated transcription of bone regulatory proteins, RNA was isolated from the calvaria of WT and β-arrestin 2−/− mice treated with vehicle, PTH(1-34) (PTH), or PTH-βarr. Gene expression was analyzed by quantitative RT-PCR. (a) Consistent with bone formation PTH and PTH-βarr increased osteocalcin expression in WT calvaria. […] (b) and (c). […] Data represent the mean±SEM from six independent experiments. (***, P<0.001; **, P<0.01; *, P<0.05; compared with vehicle treated WT mice; †††, P<0.001; †, P<0.05 compared with vehicle treated β-arrestin 2−/− mice).
To determine the contribution of β-arrestin mediated signaling to PTH1R-stimulated transcription of bone regulatory proteins, calvarial RNA was isolated from WT and β-arrestin 2−/− mice treated with PTH(1-34), PTH-βarr or vehicle. Gene expression for osteocalcin, as well as receptor activator of nuclear factor-KB ligand (RANKL) and osteoprotegrin (OPG), which activate and inhibit osteoclastic bone resorption respectively, was analyzed by quantitative RTPCR (FIG. 6 A-C).

[3] = system: WT and β-arrestin 2−/− mice; test: Bone mineral density after intermittent daily IP treatment; assay type: in vivo; details: once daily IP 40 mg/kg/day, 4 and 8 weeks
Experimental: FIG. 3. PTH-βarr increases lumbar spine bone mineral density. The effect of daily administration of vehicle, PTH (1-34)(PTH) or PTH-βarr on bone mineral density after 4 and 8 weeks was measured in the (a) lumbar spine of WT mice (b) lumbar spine of β-arrestin 2−/− (c) femur shaft of WT mice and (d) femoral shaft of β-arrestin 2−/− mice. […] Data represents the mean±SEM of at least 7 independent mouse measurements. (*, P<0.05; **, P<0.01 compared with vehicle treated controls)
β-arrestin 2−/− mice are fertile and present no gross phenotypic abnormalities. Further, no gross alterations in skeletal morphology or size were detected by x-ray analysis of β-arrestin 2−/− mice compared to 6 WT mice (data not shown). To examine the contribution of β-arrestin mediated signaling to regulation of the anabolic effects of PTH on bone, 9 week old WT and β-arrestin 2−/− mice were treated with intermittent (i.e. once daily) IP injection of PTH (1-34) (40 mg/kg/day), the β-arrestin biased agonist PTH-βarr (40 mg/kg/day). Its usually mg/kg/day) or vehicle. Bone mineral density (BMD) measurements were obtained at baseline and serially over 4 to 8 wks (FIG. 2). […] There were no significant differences in whole body BMD or femoral BMD between the WT or β-arrestin 2−/− mice. […] Consistent with earlier reports, these increases in BMD were absent in the PTH(1-34) treated β-arrestin 2−/− mice (FIGS. 2B and D). […] The decrease in BMD in β-arrestin 2−/− mice treated with PTH-βarr, are likely due to the inhibition of G protein mediated signaling as well as the absence of β-arrestin 2 mediated signaling.

Row | Substance | osteoblast surface vs vehicle [1] | osteoclast surface (osteoclast recruitment) [1] | osteoid surface vs vehicle [1] | ERK1/2 activation (ERK1/2) | Gq/11 PI hydrolysis (endogenous PTH1R) | OPG mRNA expression vs vehicle ([2]; WT mice, calvaria) | RANKL mRNA expression vs vehicle ([2]; WT mice, calvaria) | osteocalcin mRNA expression vs vehicle ([2]; WT mice, calvaria) | OPG mRNA expression vs vehicle ([2]; β-arrestin 2−/− mice, calvaria) | RANKL mRNA expression vs vehicle ([2]; β-arrestin 2−/− mice, calvaria) | femoral BMD vs vehicle ([3]; WT mice) | femoral BMD vs vehicle ([3]; β-arrestin 2−/− mice) | also measured
1 | (D-Trp12, Tyr34)-PTH(7-34) [PTH-βarr] | increased | no effect | increased | failed to activate ERK1/2 | did not activate | did not affect | did not affect | increases | Neither PTH nor PTH-βarr treatment had a significant effect | Neither PTH nor PTH-βarr treatment had a significant effect | did not significantly affect | decreases | ERK1/2 activation (ERK1/2; listed as PTH-barr): absent; OPG mRNA expression vs vehicle ([2]; WT mice; calvaria; Tyr34)-PTH(7-34)): significantly increases; osteocalcin mRNA expression vs vehicle ([2]; β-arrestin 2−/− mice, calvaria): decrease; lumbar spine BMD vs vehicle ([3]; WT mice, 40 mg/kg/day): significant increases
2 | PTH(1-34) [reference compound] | increased | increase | increased | responded to PTH(1-34) much as WT POB | did not activate | increases | increases | increases | Neither PTH nor PTH-βarr treatment had a significant effect | Neither PTH nor PTH-βarr treatment had a significant effect | marked increases | absent | osteoclast formation ([1]; in the absence of β-arrestin 2): accelerates; ERK1/2 phosphorylation (ERK1/2): approximately 3 fold over basal; ERK1/2 phosphorylation (ERK1/2; listed as PTH): robustly activated; osteocalcin mRNA expression vs vehicle ([2]; WT mice, calvaria, listed as PTH): increased; osteocalcin mRNA expression vs vehicle ([2]; β-arrestin 2−/− mice, calvaria, listed as PTH): significant increase; also recorded: significantly increased; lumbar spine BMD vs vehicle ([3]; WT mice): marked increases; lumbar spine BMD vs vehicle ([3]; β-arrestin 2−/− mice): absent
